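Briefly, cells in 96-well plates were exposed to five compound concentrations for 48 h, and endpoints were estimated by linear interpolation. TGI: total growth inhibition.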
Legend:
Experiment in all cases: inhibition of tumour cell growth, NCI panel, 48 h
NCI-H460 lung = tested on: NCI-H460 lung
NCI-H226 lung = tested on: NCI-H226 lung
SNB-19 CNS = tested on: SNB-19 CNS
OVCAR-4 ovarian = tested on: OVCAR-4 ovarian
RXF 393 renal = tested on: RXF 393 renal
NCI/ADR-RES ovarian = tested on: NCI/ADR-RES ovarian
786-0 renal = tested on: 786-0 renal
MCF7 breast = tested on: MCF7 breast
HOP-62 NSCLC = tested on: HOP-62 NSCLC
A549 NSCLC = tested on: A549 NSCLC
PC-3 prostate = tested on: PC-3 prostate
RPMI-8226 leukemia = tested on: RPMI-8226 leukemia
LOX IMVI melanoma = tested on: LOX IMVI melanoma
HCT-15 colon = tested on: HCT-15 colon
BT-549 breast = tested on: BT-549 breast
K-562 leukemia = tested on: K-562 leukemia
SK-MEL-5 melanoma = tested on: SK-MEL-5 melanoma
EKVX NSCLC = tested on: EKVX NSCLC
ACHN renal = tested on: ACHN renal
SN12C renal = tested on: SN12C renal
SW-620 colon = tested on: SW-620 colon
MDA-MB-435 = tested on: MDA-MB-435
DU-145 prostate = tested on: DU-145 prostate
IGROV1 ovarian = tested on: IGROV1 ovarian
HS 578T breast = tested on: HS 578T breast
HOP-92 NSCLC = tested on: HOP-92 NSCLC
SF-295 CNS = tested on: SF-295 CNS
NCI-H23 lung = tested on: NCI-H23 lung
HCT-116 colon = tested on: HCT-116 colon
CCRF-CEM leukemia = tested on: CCRF-CEM leukemia
UACC-257 melanoma = tested on: UACC-257 melanoma
TK-10 renal = tested on: TK-10 renal
A498 renal = tested on: A498 renal
UO-31 renal = tested on: UO-31 renal
M14 melanoma = tested on: M14 melanoma
SK-MEL-2 melanoma = tested on: SK-MEL-2 melanoma
OVCAR-8 ovarian = tested on: OVCAR-8 ovarian
HL-60(TB) leukemia = tested on: HL-60(TB) leukemia
T-47D breast = tested on: T-47D breast
MDA-MB-231 breast = tested on: MDA-MB-231 breast
OVCAR-3 ovarian = tested on: OVCAR-3 ovarian
UACC-62 melanoma = tested on: UACC-62 melanoma
SK-MEL-28 melanoma = tested on: SK-MEL-28 melanoma
HCC-2998 colon = tested on: HCC-2998 colon
U251 CNS = tested on: U251 CNS
SK-OV-3 ovarian = tested on: SK-OV-3 ovarian
SF-268 CNS = tested on: SF-268 CNS
SF-539 CNS = tested on: SF-539 CNS
KM12 colon = tested on: KM12 colon
COLO 205 colon = tested on: COLO 205 colon
CAKI-1 renal = tested on: CAKI-1 renal
OVCAR-5 ovarian = tested on: OVCAR-5 ovarian
SR leukemia = tested on: SR leukemia
HT29 colon = tested on: HT29 colon
MDA-N = tested on: MDA-N
NCI-H522 lung = tested on: NCI-H522 lung
SNB-75 CNS = tested on: SNB-75 CNS
MOLT-4 leukemia = tested on: MOLT-4 leukemia
MALME-3M melanoma = tested on: MALME-3M melanoma

Structure (SMILES): COC(=O)c1cnc(Cl)c([N+](=O)[O-])c1
- TGI (NCI-H460 lung): 31.5 µM
- TGI (NCI-H226 lung): 36.5 µM
- TGI (SNB-19 CNS): 32.4 µM
- TGI (OVCAR-4 ovarian): 36.6 µM
- TGI (RXF 393 renal): 25.1 µM
- TGI (NCI/ADR-RES ovarian): 68.3 µM
- TGI (786-0 renal): 11.2 µM
- TGI (MCF7 breast): 4.34 µM
- TGI (HOP-62 NSCLC): 36.5 µM
- TGI (A549 NSCLC): 41.6 µM
- TGI (PC-3 prostate): 22.6 µM
- TGI (RPMI-8226 leukemia): 5.3 µM
- TGI (LOX IMVI melanoma): 3.68 µM
- TGI (HCT-15 colon): 4.21 µM
- TGI (BT-549 breast): 32.3 µM
- TGI (K-562 leukemia): 4.8 µM
- TGI (SK-MEL-5 melanoma): 27.2 µM
- TGI (EKVX NSCLC): 3.28 µM
- TGI (ACHN renal): 25.1 µM
- TGI (SN12C renal): 25.8 µM
- TGI (SW-620 colon): 4.78 µM
- TGI (MDA-MB-435): 19.4 µM
- TGI (DU-145 prostate): 21.3 µM
- TGI (IGROV1 ovarian): 8.1 µM
- TGI (HS 578T breast): 76.4 µM
- TGI (HOP-92 NSCLC): 4.25 µM
- TGI (SF-295 CNS): 33.5 µM
- TGI (NCI-H23 lung): 35.2 µM
- TGI (HCT-116 colon): 8.77 µM
- TGI (CCRF-CEM leukemia): 5.1 µM
- TGI (UACC-257 melanoma): 20.3 µM
- TGI (TK-10 renal): 30.3 µM
- TGI (A498 renal): 40 µM
- TGI (UO-31 renal): 3.55 µM
- TGI (M14 melanoma): 27 µM
- TGI (SK-MEL-2 melanoma): 31.5 µM
- TGI (OVCAR-8 ovarian): 3.95 µM
- TGI (HL-60(TB) leukemia): 5.73 µM
- TGI (T-47D breast): 4.68 µM
- TGI (MDA-MB-231 breast): 30.1 µM
- TGI (OVCAR-3 ovarian): 28.7 µM
- TGI (UACC-62 melanoma): 32.1 µM
- TGI (SK-MEL-28 melanoma): 36 µM
- TGI (HCC-2998 colon): 21.5 µM
- TGI (U251 CNS): 4.23 µM
- TGI (SK-OV-3 ovarian): 33.8 µM
- TGI (SF-268 CNS): 7.6 µM
- TGI (SF-539 CNS): 32.1 µM
- TGI (KM12 colon): 35 µM
- TGI (COLO 205 colon): 12.2 µM
- TGI (CAKI-1 renal): 25.7 µM
- TGI (OVCAR-5 ovarian): 32 µM
- TGI (SR leukemia): 4.24 µM
- TGI (HT29 colon): 32.6 µM
- TGI (MDA-N): 20.1 µM
- TGI (NCI-H522 lung): 3.28 µM
- TGI (SNB-75 CNS): 34.8 µM

Structure (SMILES): CC1OC(Oc2c(-c3cc(O)c(O)c(O)c3)oc3cc(O)cc(O)c3c2=O)C(O)C(O)C1O (stereo not given)
- TGI (NCI-H226 lung): > 100 µM
- TGI (SNB-19 CNS): > 100 µM
- TGI (OVCAR-4 ovarian): > 100 µM
- TGI (RXF 393 renal): > 100 µM
- TGI (NCI/ADR-RES ovarian): > 100 µM
- TGI (MOLT-4 leukemia): > 100 µM
- TGI (786-0 renal): > 100 µM
- TGI (MCF7 breast): > 100 µM
- TGI (HOP-62 NSCLC): > 100 µM
- TGI (A549 NSCLC): > 100 µM
- TGI (PC-3 prostate): > 100 µM
- TGI (RPMI-8226 leukemia): > 100 µM
- TGI (LOX IMVI melanoma): > 100 µM
- TGI (HCT-15 colon): > 100 µM
- TGI (BT-549 breast): > 100 µM
- TGI (SK-MEL-5 melanoma): > 100 µM
- TGI (EKVX NSCLC): > 100 µM
- TGI (ACHN renal): > 100 µM
- TGI (SN12C renal): > 100 µM
- TGI (SW-620 colon): > 100 µM
- TGI (MDA-MB-435): > 100 µM
- TGI (DU-145 prostate): > 100 µM
- TGI (IGROV1 ovarian): > 100 µM
- TGI (HS 578T breast): > 100 µM
- TGI (HOP-92 NSCLC): > 100 µM
- TGI (SF-295 CNS): > 100 µM
- TGI (NCI-H23 lung): > 100 µM
- TGI (HCT-116 colon): > 100 µM
- TGI (UACC-257 melanoma): > 100 µM
- TGI (TK-10 renal): > 100 µM
- TGI (A498 renal): > 100 µM
- TGI (UO-31 renal): > 100 µM
- TGI (M14 melanoma): > 100 µM
- TGI (SK-MEL-2 melanoma): > 100 µM
- TGI (OVCAR-8 ovarian): > 100 µM
- TGI (HL-60(TB) leukemia): > 100 µM
- TGI (T-47D breast): > 100 µM
- TGI (MDA-MB-231 breast): > 100 µM
- TGI (OVCAR-3 ovarian): > 100 µM
- TGI (UACC-62 melanoma): > 100 µM
- TGI (SK-MEL-28 melanoma): > 100 µM
- TGI (HCC-2998 colon): > 100 µM
- TGI (U251 CNS): > 100 µM
- TGI (SK-OV-3 ovarian): > 100 µM
- TGI (SF-268 CNS): > 100 µM
- TGI (SF-539 CNS): > 100 µM
- TGI (KM12 colon): > 100 µM
- TGI (COLO 205 colon): > 100 µM
- TGI (CAKI-1 renal): > 100 µM
- TGI (OVCAR-5 ovarian): > 100 µM
- TGI (SR leukemia): > 100 µM
- TGI (HT29 colon): > 100 µM
- TGI (MDA-N): > 100 µM
- TGI (NCI-H522 lung): > 100 µM
- TGI (MALME-3M melanoma): > 100 µM
- TGI (SNB-75 CNS): > 100 µM

Structure (SMILES): Cc1ccc(O)c(C2=CC3=NNC(=O)C3C(c3cccc(Br)c3)C2)c1 (stereo not given)
- TGI (NCI-H460 lung): > 75 µM
- TGI (SNB-19 CNS): > 75 µM
- TGI (OVCAR-4 ovarian): 37 µM
- TGI (RXF 393 renal): 28.2 µM
- TGI (NCI/ADR-RES ovarian): > 75 µM
- TGI (MOLT-4 leukemia): > 75 µM
- TGI (786-0 renal): > 75 µM
- TGI (MCF7 breast): 31.7 µM
- TGI (HOP-62 NSCLC): > 75 µM
- TGI (A549 NSCLC): > 75 µM
- TGI (PC-3 prostate): > 75 µM
- TGI (RPMI-8226 leukemia): 72.8 µM
- TGI (LOX IMVI melanoma): 27.3 µM
- TGI (HCT-15 colon): > 75 µM
- TGI (BT-549 breast): 64.1 µM
- TGI (K-562 leukemia): > 75 µM
- TGI (SK-MEL-5 melanoma): > 75 µM
- TGI (EKVX NSCLC): > 75 µM
- TGI (ACHN renal): > 75 µM
- TGI (SN12C renal): 63.5 µM
- TGI (SW-620 colon): > 75 µM
- TGI (MDA-MB-435): > 75 µM
- TGI (DU-145 prostate): > 75 µM
- TGI (IGROV1 ovarian): > 75 µM
- TGI (HS 578T breast): > 75 µM
- TGI (HOP-92 NSCLC): > 75 µM
- TGI (SF-295 CNS): 51.6 µM
- TGI (NCI-H23 lung): > 75 µM
- TGI (HCT-116 colon): > 75 µM
- TGI (CCRF-CEM leukemia): > 75 µM
- TGI (UACC-257 melanoma): > 75 µM
- TGI (TK-10 renal): 41.3 µM
- TGI (A498 renal): > 75 µM
- TGI (UO-31 renal): > 75 µM
- TGI (M14 melanoma): > 75 µM
- TGI (SK-MEL-2 melanoma): > 75 µM
- TGI (OVCAR-8 ovarian): 64.8 µM
- TGI (HL-60(TB) leukemia): > 75 µM
- TGI (T-47D breast): > 75 µM
- TGI (MDA-MB-231 breast): 59.4 µM
- TGI (OVCAR-3 ovarian): 68.7 µM
- TGI (UACC-62 melanoma): 70.9 µM
- TGI (SK-MEL-28 melanoma): > 75 µM
- TGI (HCC-2998 colon): 31.7 µM
- TGI (U251 CNS): > 75 µM
- TGI (SK-OV-3 ovarian): 63.9 µM
- TGI (SF-268 CNS): > 75 µM
- TGI (SF-539 CNS): > 75 µM
- TGI (KM12 colon): 39.5 µM
- TGI (COLO 205 colon): 22.8 µM
- TGI (CAKI-1 renal): > 75 µM
- TGI (OVCAR-5 ovarian): 68.5 µM
- TGI (SR leukemia): > 75 µM
- TGI (HT29 colon): > 75 µM
- TGI (MDA-N): > 75 µM
- TGI (MALME-3M melanoma): 71.1 µM
- TGI (SNB-75 CNS): 70 µM

— PubChem BioAssay (NCI)
